Test results published in patent publication US20020137929A1, “1 - (3-heterocyclylphenyl) isothiourea, -isourea, -guanidine and -amidine herbicidal agents” (Intellectual Property Department, BASF Aktiengesellschaft, priority 1998, published 2002).

Experiments:
ABUTH (Velvetleaf) = test: Postemergence herbicidal evaluation; type: in vivo, Abutilon theophrasti; conditions: postemergence
In short: (§1)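 Each compound, dispersed in an acetone/water mix (50/50) carrying 0.5% TWEEN 20, is nozzle-sprayed at 40 psi on approximately two-week-old seedlings at about 0.0156–0.500 kg/ha. Plants are assessed 4–5 weeks afterward on a 0–9 scale relative to control; duplicate tests are averaged.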

GALAP (Galium) = test: Postemergence herbicidal evaluation; type: in vivo, Galium aparine; conditions: postemergence
In short: as §1

ECHCG (Barnyardgrass) = test: Postemergence herbicidal evaluation; type: in vivo, Echinochloa crus-galli; conditions: postemergence
In short: as §1

SETVI (Foxtail, Green) = test: Postemergence herbicidal evaluation; type: in vivo, Setaria viridis; conditions: postemergence
In short: as §1

ORYSAT (Rice, Tebonnet) = test: Postemergence herbicidal evaluation; type: in vivo, Oryza sativa, (L.) Tebonnet; conditions: postemergence
In short: as §1

[1] = system: IPOHE (Morningglory, Ivyleaf); test: Preemergence herbicidal evaluation; type: in vivo, Ipomoea hederacea; conditions: rated 4-5 weeks after treatment, rating scale 0-9
In short: (§2)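 Rating at 4–5 wk post-spray on a 0–9 visual scale vs control. Application: aqueous acetone, ~0.0156–0.500 kg/ha, to soil surface after seeding, preemergence.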

[2] = system: TRZAWR (Wheat, Winter, cv Riband); test: Preemergence herbicidal evaluation; type: in vivo, Triticum aestivum; conditions: rated 4-5 weeks after treatment, rating scale 0-9
In short: as §2

ZEAMX (Corn, Field) = test: Preemergence herbicidal evaluation; type: in vivo, Zea mays; conditions: rated 4-5 weeks after treatment, rating scale 0-9
In short: as §2

[3] = system: ECHORC (Watergrass (Calif.)); test: Preemergence weed control under flooded paddy conditions; type: in vivo, Echinochloa oryzoides; conditions: rated 3-4 weeks after treatment
In short: (§3)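 Seeds or propagules sown in top 0.5 cm of silt loam soil, flooded 1.5 to 3 cm above surface throughout. Compound in 50/50 v/v aqueous/acetone pipetted into flood water at about 0.0313 to 0.500 kg/ha. Visual 0-9 rating versus control after three to four weeks in greenhouse.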

CYPIR (Rice Flatsedge) = test: as above; type: in vivo, Cyperus iria; conditions: rated 3-4 weeks after treatment
In short: as §3

MOOVA (Monochoria) = test: as above; type: in vivo, Monochoria vaginalis; conditions: rated 3-4 weeks after treatment
In short: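 Ratings on a 0-9 visual scale cover stand, vigor, malformation, size, chlorosis and overall appearance relative to a control, taken three to four weeks post-treatment. Application was into flood water over freshly sown silt loam at roughly 0.0313 to 0.500 kg/ha.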

Structure (SMILES): Cc1cc(C)cc(CN2C(=O)CSC2=Nc2cc(-n3c(=O)cc(C(F)(F)F)n(C)c3=O)c(F)cc2Cl)c1 [Compound 146, 3-{4-Chloro-5-{[3-(3,5-dimethylbenzyl)-4-oxo-2-thiazolidinylidene]amino}-2-fluorophenyl}-1-methyl-6-(trifluoromethyl)-2,4(1H,3H)-pyrimidinedione]
- Herbicidal rating ABUTH (ABUTH (Velvetleaf); rate 0.0156 kg/ha): 9.0
- Herbicidal rating ABUTH (ABUTH (Velvetleaf); rate 0.0313 kg/ha): 9.0
- Herbicidal rating ABUTH (ABUTH (Velvetleaf); rate 0.0625 kg/ha): 9.0
- Herbicidal rating GALAP (GALAP (Galium); rate 0.0156 kg/ha): 2.0
- Herbicidal rating GALAP (GALAP (Galium); rate 0.0313 kg/ha): 2.0
- Herbicidal rating GALAP (GALAP (Galium); rate 0.0625 kg/ha): 4.0
- Herbicidal rating ECHCG (ECHCG (Barnyardgrass); rate 0.0156 kg/ha): 1.0
- Herbicidal rating ECHCG (ECHCG (Barnyardgrass); rate 0.0313 kg/ha): 1.0
- Herbicidal rating ECHCG (ECHCG (Barnyardgrass); rate 0.0625 kg/ha): 2.0
- Herbicidal rating SETVI (SETVI (Foxtail, Green); rate 0.0156 kg/ha): 1.0
- Herbicidal rating SETVI (SETVI (Foxtail, Green); rate 0.0313 kg/ha): 2.0
- Herbicidal rating SETVI (SETVI (Foxtail, Green); rate 0.0625 kg/ha): 3.0
- Herbicidal rating ORYSAT (ORYSAT (Rice, Tebonnet); rate 0.0156 kg/ha): 2.0
- Herbicidal rating ORYSAT (ORYSAT (Rice, Tebonnet); rate 0.0313 kg/ha): 3.5
- Herbicidal rating ORYSAT (ORYSAT (Rice, Tebonnet); rate 0.0625 kg/ha): 4.0
- Preemergence herbicidal rating IPOHE ([1]; rate 0.0156 kg/ha): 0.0
- Preemergence herbicidal rating IPOHE ([1]; rate 0.0313 kg/ha): 0.0
- Preemergence herbicidal rating IPOHE ([1]; rate 0.0625 kg/ha): 0.0
- Preemergence herbicidal rating IPOHE ([1]; rate 0.1250 kg/ha): 0.0
- Preemergence herbicidal rating IPOHE ([1]; rate 0.2500 kg/ha): 0.0
- Preemergence herbicidal rating TRZAWR ([2]; rate 0.0156 kg/ha): 0.0
- Preemergence herbicidal rating TRZAWR ([2]; rate 0.0313 kg/ha): 0.0
- Preemergence herbicidal rating TRZAWR ([2]; rate 0.0625 kg/ha): 0.0
- Preemergence herbicidal rating TRZAWR ([2]; rate 0.1250 kg/ha): 0.0
- Preemergence herbicidal rating TRZAWR ([2]; rate 0.2500 kg/ha): 1.0
- Preemergence herbicidal rating ZEAMX (ZEAMX (Corn, Field); rate 0.0156 kg/ha): 0.0
- Preemergence herbicidal rating ZEAMX (ZEAMX (Corn, Field); rate 0.0313 kg/ha): 0.0
- Preemergence herbicidal rating ZEAMX (ZEAMX (Corn, Field); rate 0.0625 kg/ha): 0.0
- Preemergence herbicidal rating ZEAMX (ZEAMX (Corn, Field); rate 0.1250 kg/ha): 0.0
- Preemergence herbicidal rating ZEAMX (ZEAMX (Corn, Field); rate 0.2500 kg/ha): 0.0
- herbicidal effect rating, ECHORC ([3]; 0.0313 kg/ha): 9.0
- herbicidal effect rating, ECHORC ([3]; 0.0625 kg/ha): 9.0
- herbicidal effect rating, ECHORC ([3]; 0.1250 kg/ha): 9.0
- herbicidal effect rating, ECHORC ([3]; 0.2500 kg/ha): 9.0
- herbicidal effect rating, CYPIR (CYPIR (Rice Flatsedge); 0.0313 kg/ha): 4.0
- herbicidal effect rating, CYPIR (CYPIR (Rice Flatsedge); 0.0625 kg/ha): 6.0
- herbicidal effect rating, CYPIR (CYPIR (Rice Flatsedge); 0.1250 kg/ha): 6.0
- herbicidal effect rating, CYPIR (CYPIR (Rice Flatsedge); 0.2500 kg/ha): 7.0
- herbicidal effect rating, MOOVA (MOOVA (Monochoria); 0.0313 kg/ha): 4.0
- herbicidal effect rating, MOOVA (MOOVA (Monochoria); 0.0625 kg/ha): 6.0
- herbicidal effect rating, MOOVA (MOOVA (Monochoria); 0.1250 kg/ha): 6.0
- herbicidal effect rating, MOOVA (MOOVA (Monochoria); 0.2500 kg/ha): 9.0
